# Experiments:
# [1] = test system: T1, free laccase from F. fomentarius (FF); settings: read-out: Km Free Laccase; free enzyme from crude culture supernatant; ABTS 0.05-2.0 mM; general assay buffer 0.1 M sodium acetate pH 4.5
# T1 construct: gene lac
# [2] = test system: T2, free laccase from T. versicolor (TV); settings: read-out: Km Free Laccase; free enzyme from crude culture supernatant; ABTS 0.05-2.0 mM; general assay buffer 0.1 M sodium acetate pH 4.5
# T2 construct: gene LCC1
smiles,measurement,setting,value
CCn1c(=NN=c2sc3cc(S(=O)(=O)O)ccc3n2CC)sc2cc(S(=O)(=O)O)ccc21 [ABTS],Km,[1],87 µM
same,Km,[2],1900 µM
